In US9765109B2, “2′-arabino-fluorooligonucleotide N3′→P5′ phosphoramidates: their synthesis and use” (Geron Corporation, priority 2000, dated 2017):

Legend:
[1] = tested on: natural phosphodiester RNA strand; assay: Thermal denaturation (Tm) of duplexes with complementary RNA; type: binding; conditions: for Tm, RNA: duplex; for Tm difference of duplex with RNA: relative to 2′-deoxy phosphodiester oligonucleotide (experiment 1)
Experimental: (§1) ^31P NMR spectra were obtained on a Varian 400 MHz spectrometer. ^31P NMR spectra were referenced against 85% aqueous phosphoric acid. Anion exchange HPLC was performed using a Dionex DX 500 Chromatography System, with a Pharmacia Biotech Mono Q HR 5/5 or 10/16 ion exchange columns. Ion exchange HPLC was performed on the Dionex DX 500 system, using a Pharmacia Mono Q HR 5/5 column. Buffer A and B were: 10 mM NaOH, pH12 and 10 mM NaOH, 1.5 M NaCl, pH12, respectively. Oligonucleotides were eluted using a 1.5%/min. linear gradient of buffer B in A; flow 0.5 mL/min. Mass spectral analysis was performed by Mass Consortium, San Diego, Calif. MALDI-TOF analysis of oligonucleotides was obtained using a PerSpective Biosystems Voyager Elite mass spectrometer with delayed extraction. Thermal dissociation experiments were conducted on a Cary Bio 100 UV-Vis spectrometer.
(§2) ^ad, r, and a correspond to the 2′-deoxy, 2′-ribo-fluoro and to 2′-arabino-fluoronucleosides respectively; p and n correspond to the internucleoside phosphodiester and N3′→P5′ phosphoramidate linkages, respectively; ^bmelting temperature, Tm (±0.5° C.), of the duplexes formed with natural phosphodiester ssDNA or RNA strands, or: ^etriplexes formed with dA/dT duplex part of d(A10C4T10) hairpin. Buffers: ^c150 mM NaCl, 10 mM sodium phosphate buffer pit 7.4—first number, or in: ^dthe same buffer containing an additional 10 mM magnesium chloride—second number; n.o or n.d—the melting transitions and Tm's were not observed or not determined, respectively.
(§3) The ability of N3′→P5′ phosphoramidate 2′-arabino-fluorooligonucleotides to form complexes with complementary DNA and RNA strands was examined and compared with related oligonucleotide analogues using thermal denaturation experiments. […] (compare experiments 1 and 2, Table 1). […] Substitution of 2′-deoxy-3′-aminonucleosides by 2′-arabino-fluoro-3′-amino counterparts stabilized duplexes, by about 2-7° C., with DNA and RNA in a low ionic strength buffer. […] (compare experiments 3 and 6, Table 1).

[2] = tested on: natural phosphodiester ssDNA; assay: Thermal denaturation (Tm) of duplexes with complementary DNA; type: binding; conditions: for Tm, DNA: duplex
Experimental: as §1, §2, §3

[3] = tested on: dA/dT duplex part of d(A10C4T10) hairpin; assay: Thermal denaturation (Tm) of triplexes with dsDNA; type: binding; conditions: for Tm, dsDNA: triplex
Experimental: as §1
as §2, with “respectively. […]” for “respectively.”

[4] = Stability in concentrated aqueous ammonia, judged by IE HPLC; type: physicochemical; conditions: 24 hours, 55° C., IE HPLC analysis
Experimental: (§4) It was reported that the 2′-ribo-fluoropyrimidine containing oligonucleotides with N3′→P5′ phosphoramidate or with phosphodiester internucleoside linkages are somewhat labile during treatment with aqueous ammonia at 55° C. (Schultz et al., Nucl. Acids Res., 24:2966-2973, 1996; Krug et al., Nucleosides Nucleotides, 8:1473-1483, 1989). Under these basic conditions pyrimidine-O2 mediated elimination of the 2′-fluorine atom takes place, resulting in formation of 2,3′-O-anhydronucleosides and multiple products of their consequent reactions with aqueous ammonia, including 2′-arabino-hydroxyl nucleosides (Krug et al., Nucleosides Nucleotides, 8:1473-1483, 1989). In contrast, the prepared 2′-arabino-fluoro phosphoramidate oligonucleotides were stable under these conditions.

[5] = Acid stability, half-life at pH 3; type: physicochemical
Experimental: as §4

[6] = single value given, buffer not stated
[7] = 150 mM NaCl, 10 mM sodium phosphate buffer (first number)
[8] = same buffer with additional 10 mM magnesium chloride (second number)

Row | Substance | Tm, RNA [1, 6] | Effect of increasing buffer ionic strength on Tm of duplex with RNA [1] | Tm, RNA [1, 7] | Tm, RNA [1, 8] | Tm difference of duplexes ([1]; relative to 2′-arabino-fluoro phosphodiester SEQ ID NO:5 (experiments 3 and 6), DNA and RNA) | Tm, DNA [2, 7] | Tm, DNA [2, 8] | Tm, dsDNA [3, 7] | Tm difference of duplex with RNA [1] | Tm difference of complex with DNA (destabilization) ([2]; relative to 2′-deoxy phosphodiester oligonucleotide (experiments 1 and 2)) | Tm, dsDNA [3, 8] | Relative stability of triplex with dsDNA ([3]; versus SEQ ID NO:6 and SEQ ID NOs:3-5, but not SEQ ID NO:7) | Stability on exposure to concentrated aqueous ammonia [4] | Base and acid stability (summary statement) [5] | Tm difference of complexes with both DNA and RNA strands ([1]; most stable complexes, compare experiments 5, 6 and 7)
1 | a(Cn^fUn^fCn^fUn^fCn^fUn^fGnCn^fCn^f) (CUCUCUGCC; 2'-arabino-fluoro phosphoramidate backbone; contains 2 prime-arabino-fluoronucleosides; test compounds) [SEQ ID NO:10, mixed base 2′-arabino-fluoro phosphoramidate oligonucleotide] | 66.8 °C |  |  |  |  |  |  |  |  |  |  |  |  |  | 
2 | d(UnUnUnUnUnUnUnUnUnT) (UUUUUUUUUT; N3′→P5′ phosphoramidate; contains 2 prime-deoxy nucleosides; test compounds) [SEQ ID NO:6, 2′-deoxy N3′→P5′ phosphoramidate oligonucleotide] |  | no effect | 38.1 °C | 47.2 °C | 8.7-12.5 °C | 18.5 °C | 38.2 °C | <15; n.d ° C. |  |  |  |  |  |  | 
3 | r(Up^fUp^fUp^fUp^fUp^fUp^fUp^fUp^fUp^fT) (UUUUUUUUUT; 2′-ribo-fluoro; contains 2 prime-ribo-fluoronucleosides; test compounds) [SEQ ID NO:4, 2′-ribo-fluoro phosphodiester decanucleotide] |  |  | 32.9 °C | 36.6 °C |  | n.o | 18.0 °C | n.o; n.o | 15.0-16.3 °C | −6.7-16 °C | n.o; n.o |  |  |  | 
4 | d(UpUpUpUpUpUpUpUpUpT) (UUUUUUUUUT; contains 2 prime-deoxy nucleosides; test compounds) [SEQ ID NO:3, 2′-deoxy phosphodiester oligonucleotide] |  |  | 17.9 °C | 20.3 °C |  | 16.7 °C | 24.6 °C | n.o;^c n.o^d |  |  | n.o;^c n.o^d |  |  |  | 
5 | d(CnUnCnUnCnUnGnCnCn) (CUCUCUGCC; DNA, backbone, methylation of C and T or U not given here; phosphoramidate linkages) [SEQ ID NO:9, mixed base 2′-deoxy phosphoramidate oligonucleotide] | 66.7 °C |  |  |  |  |  |  |  |  |  |  |  |  |  | 
6 | dT-a(Un^fUn^fUn^fUn^fUn^fUn^fUn^fUn^f Un^f) (TUUUUUUUUU; 2′-arabino-fluoro phosphoramidate; 5′ dT; contains 2 prime-deoxy and 2 prime-arabino- fluoronucleosides; test compounds) [SEQ ID NO:8, 2′-arabino-fluoro N3′→P5′ phosphoramidate decanucleotide] |  |  | 40.0; 40.0 °C | 40.0; 40.0 °C |  | 25.7 °C | 37.0 °C | 22.0 °C |  |  | 31.2 °C | more stable triplex | practically intact | base and acid stable | 
7 | dT-r(Un^fUn^fUn^fUn^fUn^fUn^fUn^fUn^f Un^f) (TUUUUUUUUU; 2′-ribo-fluoro phosphoramidate; 5′ dT; contains 2 prime-deoxy and 2 prime-ribo- fluoronucleotides; test compounds) [SEQ ID NO:7, 2′-ribo-fluoro N3′→P5′ phosphoramidate oligonucleotide] |  |  | 55.5 °C | 61.9 °C |  | 37.4 °C | 56.3 °C | 42.2 °C |  |  | 54.1 °C |  | converted into a very complex mixture of products |  | 14-21 °C
8 | a(Up^fUp^fUp^fUp^fUp^fUp^fUp^fUp^fUp^fT) [SEQ ID NO:5] |  |  | 27.5 °C | 28.6 °C |  | 17.0 °C | 25.0 °C | < 14 °C | 8.3-9.6 °C |  | 20.9 °C |  |  |  | 
